# PubChem BioAssay (NCI)
#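 Following 48 hours of exposure in 96-well plates, responses at five concentrations were used to interpolate endpoints linearly. TGI: concentration producing complete growth inhibition.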 Where a SMILES comes first, the peptide text is derived from it. The star is where a group is joined. Boc = CC(C)(C)OC(=O)*
# What was measured:
# Experiment in all cases: NCI anticancer screen, dose series, 48 h
# UO-31 renal = test system: UO-31 renal
# NCI-H460 lung = test system: NCI-H460 lung
# MCF7 breast = test system: MCF7 breast
# MALME-3M melanoma = test system: MALME-3M melanoma
# SNB-75 CNS = test system: SNB-75 CNS
# HT29 colon = test system: HT29 colon
# MDA-MB-435 = test system: MDA-MB-435
# SF-268 CNS = test system: SF-268 CNS
# SNB-19 CNS = test system: SNB-19 CNS
# LOX IMVI melanoma = test system: LOX IMVI melanoma
# UACC-62 melanoma = test system: UACC-62 melanoma
# 786-0 renal = test system: 786-0 renal
# K-562 leukemia = test system: K-562 leukemia
# NCI-H522 lung = test system: NCI-H522 lung
# T-47D breast = test system: T-47D breast
# SR leukemia = test system: SR leukemia
SMILES,TGI (UO-31 renal) [µM],TGI (NCI-H460 lung) [µM],TGI (MCF7 breast) [µM],TGI (MALME-3M melanoma) [µM],TGI (SNB-75 CNS) [µM],TGI (HT29 colon) [µM],TGI (MDA-MB-435) [µM],TGI (SF-268 CNS) [µM],TGI (SNB-19 CNS) [µM],TGI (LOX IMVI melanoma) [µM],TGI (UACC-62 melanoma) [µM],TGI (786-0 renal) [µM],TGI (K-562 leukemia) [µM],TGI (NCI-H522 lung) [µM],TGI (T-47D breast) [µM],TGI (SR leukemia) [µM]
COc1cc(/C=C2\N=C(c3ccccc3)N(c3ccc(S(=O)(=O)Nc4nccs4)cc3)C2=O)ccc1O,> 100,> 100,> 100,> 100,> 100,> 100,> 100,> 100,> 100,> 100,> 100,> 100,> 100,> 100,> 100,> 100
CC(C)(C)c1cc(C(C)(C)C)c(P=C(Cl)Cl)c(C(C)(C)C)c1 (configuration not stated),> 100,> 100,> 100,> 100,> 100,> 100,> 100,> 100,> 100,> 100,> 100,> 100,> 100,> 100,> 100,> 100
COc1ccc(/C=C/C(=O)c2cccc(C(=O)/C=C/c3ccc(OC)c(OC)c3)n2)cc1OC,43.4,> 100,> 100,70.5,> 100,31.6,> 100,> 89.3,99.1,10.6,> 57.4,27.5,> 100,23.1,> 100,> 25.9
Cc1cccc(/C=N/NC(=S)NC2CCCCC2)n1,> 89.5,> 67.8,> 100,> 86.4,> 100,42.1,> 100,> 100,> 100,99,59.2,98.3,> 54.7,> 64.3,> 86.3,> 78.3
COC(=O)C(Cc1c[nH]c2ccccc12)NC(=O)C(Cc1c[nH]c2ccccc12)NC(=O)C(Cc1c[nH]c2ccccc12)NC(=O)C(Cc1c[nH]c2ccccc12)NC(=O)C(Cc1c[nH]c2ccccc12)NC(=O)OC(C)(C)C (configuration not stated) (Boc-WWWWW-OMe; configuration not given here),> 100,> 100,> 100,> 100,> 100,> 100,> 100,> 100,> 100,> 100,> 100,> 100,> 100,> 100,> 100,> 100
N#CCN(Cc1ccccc1)[C@H]1CCC[C@]1(O)/C=C/c1ccc2c(c1)OCO2,> 100,38.2,39.6,32.1,> 100,29.8,53.2,> 100,76.3,29.4,37.9,31.4,51.5,32.1,46.4,40.2
CN(C)Cc1cc(N=Nc2c(Cl)cccc2Cl)ccc1O,> 100,> 100,> 100,> 100,> 100,> 100,> 100,> 100,> 100,> 100,> 100,> 100,> 100,> 100,> 100,> 100
CCCCCCCCCCCCOCCCCCCCCC/C=C/c1ccc2c(c1)OCCOCCOCCOCCO2,39.4,37.9,32,66.8,33.4,45.4,33.8,48.2,77.6,38.9,30.3,26.6,> 100,28.3,48.2,49.1
COc1ccc(/C=C/C(=N/NC(=O)N/N=C(/C=C/c2ccc(OC)cc2)C(C)C)C(C)C)cc1,> 100,> 100,> 100,> 100,> 100,> 100,> 100,> 100,> 100,> 100,> 100,> 100,> 100,> 100,> 100,> 100
CSC1=C(C)S/C(=C\c2ccc(/C=C3\SC(C)=C(SC)S3)cc2)S1,> 100,> 100,> 100,> 100,> 100,> 100,> 100,> 100,> 100,> 100,> 100,> 100,> 100,> 100,> 100,> 100
Cc1cc(Cl)ccc1NC(=O)/C(Cc1nc2ccc(C(=O)c3ccccc3)cc2[nH]c1=O)=N/NC(=O)c1ccncc1,> 100,> 100,> 100,> 100,> 100,> 100,> 100,> 100,> 100,> 100,> 100,> 100,> 100,> 100,> 100,> 100
Cc1cccc2c1CC(C1OC(=O)c3c(C)cccc31)C2=O (configuration not stated),> 100,> 100,> 100,> 100,> 100,> 100,> 100,> 100,> 100,> 100,> 100,> 100,> 100,> 100,> 100,> 100
O=C(c1c(F)c(F)c(F)c(F)c1F)n1c(=O)[nH]c2ccccc21,25.2,27.2,16.8,28.5,30.5,18,21.9,34.1,28.2,14.9,25.5,47.4,14.9,13.6,17.6,8.8
COC(=O)/N=[N+](\[O-])C(c1ccc(Cl)cc1)c1ccc(Cl)cc1,51.2,> 100,> 100,> 100,> 100,> 100,> 100,> 100,> 100,43.6,> 100,96.5,> 100,> 100,91.9,> 100
COc1ccccc1/[N+]([O-])=C/c1ccccc1OC(=S)S,> 100,> 100,> 100,> 100,> 100,> 100,36,> 100,> 100,> 100,> 100,85.9,> 100,71.4,> 100,> 100
N/C(=N\Nc1cccc(Cl)c1)c1cccnc1,> 55.7,> 100,> 100,> 100,99.7,> 83.9,> 30.1,> 100,> 100,> 100,> 100,> 100,> 100,> 100,> 92.6,64.9
CCCC[P+](CCCC)(CCCC)C(C(=O)OC)C(C(=O)OC)=C1SC(C(=O)OC)=C(C(=O)OC)S1 (configuration not stated),> 100,> 100,> 100,> 100,> 100,> 100,> 100,> 100,> 100,> 100,> 100,> 100,,> 100,> 100,> 100
COP(=N[Si](C)(C)C)(OC)OC,> 100,> 100,> 100,> 100,> 100,> 100,> 100,> 100,> 100,> 100,> 100,> 100,> 100,> 100,> 100,> 100
Cc1nc2ccc(S(=O)(=O)Nc3ccccn3)cc2c(=O)n1NS(=O)(=O)c1ccccn1,> 100,> 100,> 100,> 100,> 100,> 100,> 100,> 100,> 100,> 100,> 100,> 100,> 100,> 100,> 100,> 100
CCOc1cc(NC(C)=O)ccc1C(=O)NN1C(=O)C(Cl)C1c1ccc(O)c(OC)c1 (configuration not stated),11.1,33.1,30.4,22,24.1,31.9,29.8,35.9,29.5,7.79,25.5,26,25.1,22.8,30.8,19.5
CC(C)/C(Cl)=N/OC(NC(=O)Nc1ccc(Cl)c(Cl)c1)(C(F)(F)F)C(F)(F)F,31.3,56.4,> 50.2,4.55,31.3,53.7,33.8,39.4,41,14.7,37.2,22.2,8.86,3.31,19.4,> 100
O=C1CSC2(CC(/C=C/c3cccc(Br)c3)=NN2c2cccc(S(=O)(=O)O)c2)N1c1nc2ccccc2s1 (configuration not stated),> 100,> 100,> 100,> 100,> 100,> 100,> 100,> 100,> 100,> 100,> 100,> 100,> 100,> 100,> 100,> 100
Cc1ccc(/C(O)=C/c2nc3ccccc3nc2NC23CC4CC(CC(C4)C2)C3)cc1,,,> 10,> 10,> 10,> 10,> 10,> 10,> 10,> 10,> 10,> 10,> 10,> 10,> 10,> 10
O=c1oc2ccccc2cc1-c1nc2ccccc2c(=O)[nH]1,> 100,> 100,> 100,> 100,> 100,> 100,> 100,> 100,> 100,> 100,> 100,> 100,> 100,> 100,> 100,> 100
Clc1ccccc1-c1nn2c(CCCCCCCCc3nnc4sc(-c5ccccc5Cl)nn34)nnc2s1,> 100,> 100,> 100,> 100,> 100,> 100,> 100,> 100,> 100,> 100,> 100,> 100,> 100,> 100,> 100,> 100
CCOC(=O)Nn1cnnc1Cc1ccccc1,> 100,> 100,> 100,> 100,,> 100,> 100,> 100,> 100,> 100,> 100,> 100,> 100,> 100,> 100,> 100
O=C(/C=C/c1ccsc1)c1cccs1,34.3,> 100,52.2,> 100,> 100,> 100,> 10,81.2,> 100,,88.5,> 100,> 100,39.4,54.3,> 10
O=C1c2scc(-c3ccc(F)cc3)c2-n2cccc21,> 100,> 100,> 100,> 100,45.2,> 100,31.4,> 100,> 100,> 100,> 100,68.6,,> 100,> 100,44
